From US5686486A, “4-hydroxy-benzopyran-2-ones and 4-hydroxy-cycloalkyl[b]pyran-2-ones useful to treat retroviral infections” (priority 1995, dated 1997)
“And” between values parts separate entries of the source, which are not always exact repeats. Equal entries are not always repeated. Structures can show the parent of a compound that is named as a salt. Where two headings read alike, the source gives them in different places.

Molecular target: HIV-1 protease (Human immunodeficiency virus type 1 group M subtype B, UniProt P04585)
Test: biochemical
Settings: for inhibition at 1 µM: read-out: HIV-1 Protease % Inhib, dose 1.000 uM; for inhibition at 100 µM: read-out: HIV-1 Protease % Inhib, dose 100.000 uM; for inhibition at 0.123 µM: read-out: HIV-1 Protease % Inhib, dose 0.123 uM
How it was run: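 Percent inhibition derived from fluorescent cleavage product separated by filtration after streptavidin-bead capture of intact biotin/FITC substrate. Reaction: enzyme (10 μl, 0.1 μM stock) with substrate (20 μl, 0.2 μM stock) and compound, 1 h at room temperature in dark, pH 5.5 acetate buffer with 1.0 M NaCl and 0.05% NP-40.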

[1] = read-out: HIV-1 Protease % Inhib, dose 10.000 uM
[2] = read-out: HIV-1 Protease % Inhib, dose 0.370 uM
[3] = read-out: HIV-1 Protease % Inhib, dose 1.100 uM
[4] = read-out: HIV-1 Protease % Inhib, dose 3.300 uM
[5] = read-out: HIV-1 Protease % Inhib, dose 30.000 uM
[6] = dose 1.100 uM, read-out: HIV-1 Protease % Inhib
[7] = dose 3.300 uM, read-out: HIV-1 Protease % Inhib
[8] = dose 10.000 uM, read-out: HIV-1 Protease % Inhib
[9] = dose 30.000 uM, read-out: HIV-1 Protease % Inhib

Row | inhibition at 10 µM [8] [%] | inhibition at 30 µM [9] [%] | SMILES | inhibition at 10 µM [1] [%] | inhibition at 0.123 µM [%] | inhibition at 0.37 µM [2] [%] | inhibition at 1.1 µM [3] [%] | inhibition at 3.3 µM [4] [%] | inhibition at 30 µM [5] [%] | further results
1 |  |  | CCC(c1cccc(NC(=O)CCSc2nc3ccccc3s2)c1)c1c(O)c2ccccc2oc1=O (stereo not shown) [Example 65, Coumarin, 3-[1-[3-[[3-[(2-benzothiazolyl)thio]-1-oxopropyl]amino]phenyl]propyl]4-hydroxy-] | 48.4 |  |  |  |  |  | inhibition at 1 µM: < 10%; inhibition at 100 µM: 86.1%
2 |  |  | CCCCC(c1cccc(NS(=O)(=O)c2ccc(F)cc2)c1)c1c(O)c2c(oc1=O)CCCCCC2 (stereo not shown) [Example 422] | 97.6 | 100 | 95.4 | 96.5 | 103 | 95.2 | 
3 | 83.7 | 95.3 | O=C(Nc1ccccc1)Nc1cccc(C(c2c(O)c3c(oc2=O)CCCCCC3)C2CC2)c1 (stereo not shown) [Example 224, N-[3-[Cyclopropyl(5,6,7,8,9,10-hexahydro-4-hydroxy-2-oxo-2H-cycloocta[b]pyran-3-yl)methyl]phenyl]-N'-phenyl-urea] |  |  |  |  |  |  | inhibition at 0.37 µM (dose 0.370 uM, read-out: HIV-1 Protease % Inhib): 10.9%; inhibition at 1.1 µM [6]: 42.4%; inhibition at 3.3 µM [7]: 72.3%
4 |  |  | O=c1oc2c(c(O)c1C(c1cccc(NS(=O)(=O)c3ccc(Br)cc3)c1)C1CC1)CCCCCC2 (stereo not shown) [Example 272, 4-Bromo-N-[3-[cyclopropyl(5,6,7,8,9,10-hexahydro-4-hydroxy-2-oxo-2H-cycloocta[b]pyran-3-yl)methyl]phenyl]-benzenesulfonamide] | 101 | 67.1 | 85.2 | 95.3 | 96.2 | 104 | 
5 | 91.8 | 106 | CC(=O)Nc1nc(C)c(S(=O)(=O)Nc2cccc(C(c3c(O)c4c(oc3=O)CCCCCC4)C3CC3)c2)s1 (stereo not shown) [Example 322, N-[5-[[[3-[Cyclopropyl(5,6,7,8,9,10-hexahydro-4-hydroxy-2-oxo-2H-cycloocta[b]pyran-3-yl)methyl]phenyl]amino]sulfonyl]-4-methyl-2-thiazolyl]-acetamide] |  |  |  |  |  |  | inhibition at 1.1 µM [6]: 22.3%; inhibition at 3.3 µM [7]: 61.1%
6 |  |  | O=C(Nc1cccc(C(c2c(O)c3c(oc2=O)CCCCCC3)C2CC2)c1)Oc1ccccc1 (stereo not shown) [Example 225, [3-[Cyclopropyl(5,6,7,8,9,10-hexahydro-4-hydroxy-2-oxo-2H-cycloocta[b]pyran-3-yl)methyl]phenyl]-, phenyl ester carbamic acid] | 77.2 |  |  | 14.9 | 47 | 91.7 | 
7 |  |  | O=c1oc2c(c(O)c1C(c1cccc(NS(=O)(=O)c3cccc4ccccc34)c1)C1CC1)CCCCCC2 (stereo not shown) [Example 270, N-[3-[Cyclopropyl(5,6,7,8,9,10-hexahydro4-hydroxy-2-oxo-2H-cycloocta[b]pyran-3-yl)methyl]phenyl]-1-naphthalenesulfonamide] | 116 | 61.7 | 93.1 | 107 | 111 | 115 | 
8 |  |  | CC(C)CC(c1cccc(NS(=O)(=O)c2cccc3cccnc23)c1)c1c(O)c2c(oc1=O)CCCCCC2 (stereo not shown) [Example 428, 8-Quinolinesulfonamide, N-[3-[1-(5,6,7,8,9,10-hexahydro4-hydroxy-2-oxo-2H-cycloocta[b]pyran-3-yl)-3-methylbutyl]phenyl]-] | 87.9 | 86.3 | 84 | 86.5 | 87.1 | 84.2 | 
9 |  |  | CC(c1cccc(C#N)c1)c1c(O)c2ccccc2oc1=O (stereo not shown) [Example 101, Coumarin, 3-[1-(3-Cyanophenyl)ethyl]-4-hydroxy-] | < 10 |  |  |  |  |  | inhibition at 1 µM: < 10%; inhibition at 100 µM: 39.2%
10 | 10.9 | 31.4 | CC(C)(C)OC(=O)NCC(=O)N(Cc1ccccc1)c1cccc(C(c2c(O)c3c(oc2=O)CCCCCC3)C2CC2)c1 (stereo not shown) [Example 216, Carbamic acid, [2-[[3-[cyclopropyl(5,6,7,8,9,10-hexahydro4-hydroxy-2-oxo-2H-cycloocta[b]pyran-3-yl)methyl]phenyl](phenylmethyl)amino]-2-oxyethyl]-, 1,1-dimethylethyl ester] |  |  |  |  |  |  | 
11 |  |  | CC(C)CC(c1cccc(NS(=O)(=O)c2cccnc2)c1)c1c(O)c2c(oc1=O)CCCCCC2 (stereo not shown) [Example 429, 3-Pyridinesulfonamide, N-[3-[1-(5,6,7,8,9,10-hexahydro4-hydroxy-2-oxo-2H-cycloocta[b]pyran-3-yl)-3-methylbutyl]phenyl]-] | 107 | 88.6 | 98.2 | 99.9 | 103 | 108 | 
12 |  |  | CCC(c1cccc(C(=O)NC2c3ccccc3CC2O)c1)c1c(O)c2ccccc2oc1=O (stereo not shown) [Example 143, N-(2-Hydroxy-indan-1-yl)-3-(1-(4-hydroxy-2-oxo-2H-chromen-3-yl)-propyl)-benzamide] | 77.1 |  |  |  |  |  | inhibition at 1 µM: 10.8%; inhibition at 100 µM: 92.1%
13 | 102 | 102 | CC(O)CC1CCCCc2c1oc(=O)c(C(c1ccccc1)C1CC1)c2O (stereo not shown) [Example 192, 3-(Cyclopropylphenylmethyl)-6,7,8,9-tetrahydro-4-hydroxy-9-(2-hydroxypropyl)-cyclohepta[b]pyran-2(5H)-one] |  |  |  |  |  |  | inhibition at 1.1 µM [6]: 24.9%; inhibition at 3.3 µM [7]: 68.8%
14 | 83 | 83.1 | Cn1cnc(S(=O)(=O)Nc2ccc(C(c3c(O)c4c(oc3=O)CCCCCC4)C3CC3)cc2)c1 (stereo not shown) [Example 476, N-[4-[Cyclopropyl (5,6,7,8,9,10-hexahydro-4-hydroxy-2-oxo-2H-cycloocta[b]pyran-3-yl)methyl]phenyl]-1-methyl-1H-imidazole-4-sulfonamide] |  |  |  |  |  |  | inhibition at 1.1 µM [6]: 19.5%; inhibition at 3.3 µM [7]: 53.1%
15 |  |  | CC(C)C(c1ccccc1)c1c(O)c2ccccc2oc1=O (stereo not shown) [Example 9, 4-Hydroxy-3-(2-methyl-1-phenylpropyl)-coumarin] | 65 |  |  |  |  |  | IC50 (HIV-1 Protease IC50): 10.6 µM; inhibition at 1 µM: 12.1%; inhibition at 100 µM: 98.3%
16 |  |  | CC(C)CC(c1cccc(NS(=O)(=O)c2ccc(F)cc2)c1)c1c(O)c2c(oc1=O)CCCCCC2 (stereo not shown) [Example 425, Benzenesulfonamide, N-[3-[1-(5,6,7,8,9,10-hexahydro-4-hydroxy-2-oxo-2H-cycloocta[b]pyran-3-yl)-3-methylbutyl]phenyl]-4-fluoro-] | 98.5 | 97.4 | 109 | 101 | 108 | 98.5 | 
17 | 79.9 | 94.1 | Cc1cc(C)c(S(=O)(=O)Nc2cccc(C(c3c(O)c4c(oc3=O)CCCCCC4)C3CC3)c2)c(C)c1 (stereo not shown) [Example 277, N-[3-[Cyclopropyl(5,6,7,8,9,10-hexahydro-4-hydroxy-2-oxo-2H-cycloocta[b]pyran-3-yl)methyl]phenyl]-2,4,6-trimethyl-benzenesulfonamide] |  |  |  |  |  |  | inhibition at 3.3 µM [7]: 37.9%
18 |  |  | CC(C)(C)OC(=O)NCCCC(=O)Nc1cccc(C(c2c(O)c3c(oc2=O)CCCCCC3)C2CC2)c1 (stereo not shown) [Example 201, Carbamic acid, [4-[[3-[cyclopropyl(5,6,7,8,9,10-hexahydro,-hydroxy-2-oxo-2H-cycloocta[b]pyran-3-yl)methyl]phenyl]amino]-4-oxybutyl]-, 1,1-dimethylethyl ester] | 100 | 31.2 | 60.1 | 80 | 95.4 | 107 | 
19 |  |  | O=c1oc2c(c(O)c1C(c1cccc(NS(=O)(=O)c3ccc(Cl)cc3)c1)C1CC1)CCCCCC2 (stereo not shown) [Example 264, 4-Chloro-N-[3-[cyclopropyl(5,6,7,8,9,10-hexahydro4-hydroxy-oxo-2H-cycloocta[b]pyran-3-yl)methyl]phenyl]-benzenesulfonamide] | 108 | 78.5 | 89 | 99.8 | 104 | 109 | 
20 |  |  | CCC(c1cccc(N)c1)c1c(O)c2ccccc2oc1=O (stereo not shown) [Example 40, Coumarin, 3-[1-(3-aminophenyl)propyl]4-hydroxy-, monohydrochloride-] | < 10 |  |  |  |  |  | inhibition at 1 µM: < 10%; inhibition at 100 µM: 51.3%
21 |  |  | O=c1oc2c(c(O)c1C(c1cccc(NS(=O)(=O)c3ccc(F)cc3F)c1)C1CC1)CCCCCC2 (stereo not shown) [Example 279, N-[3-[Cyclopropyl(5,6,7,8,9,10-hexahydro-4-hydroxy-2-oxo-2H-cycloocta[b]pyran-3-yl)methyl]phenyl]-2,4-difluoro-benzenesulfonamide] | 109 | 78.2 | 97.3 | 105 | 103 | 94.8 | 
22 |  |  | CCC(c1cccc(O)c1)c1c(O)c2ccccc2oc1=O (stereo not shown) [Example 103, Coumarin, 4-hydroxy-3-[1-(3-hydroxyphenyl)propyl]-] | 25.7 |  |  |  |  |  | HIV-1 Protease % Inhib (dose 100.000 uM): 87.29% and 73.35%; inhibition at 1 µM: < 10%; inhibition at 100 µM: 80.9%

Row | SMILES | inhibition at 10 µM [8] [%] | inhibition at 30 µM [9] [%] | inhibition at 10 µM [1] [%] | inhibition at 0.123 µM [%] | inhibition at 0.37 µM [2] [%] | inhibition at 1.1 µM [3] [%] | inhibition at 3.3 µM [4] [%] | inhibition at 30 µM [5] [%] | further results
23 | CC(C)(C)OC(=O)NCc1ccc(C(c2c(O)c3c(oc2=O)CCCCCC3)C2CC2)o1 (stereo not drawn) [Example 480, 3-(α-Cyclopropyl(5-(N-carbo-t-butoxy)aminomethyl)furfur-2-yl)-4-hydroxy-5,6,7,8,9,10-hexahydrocycloocata[b]pyran-2-one] | 45.5 | 78.2 |  |  |  |  |  |  | inhibition at 3.3 µM [7]: 19.2%
